Experimental data reported in US8952024B2, “Herbicidal pyrimidone derivatives” (E I du Pont de Nemours and Company, priority 2009, dated 2015).

Key:
Assay in all cases: Test B pre-/postemergence plant response
Format in all cases: in vivo
[1] = system: ragweed (common ragweed, Ambrosia elatior)
Outline: (§1)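 Seeds sown in loam–sand blend were treated preemergence, and plants at 2–18 cm (1- to 4-leaf stage) in peat-based medium were treated postemergence; compounds were formulated in non-phytotoxic solvent with surfactant. After 13–15 days in greenhouse, response was visually rated against controls, 0 (no effect) to 100 (complete control).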

[2] = system: large crabgrass (Digitaria sanguinalis)
Outline: as §1

[3] = system: green foxtail (Setaria viridis)
Outline: as §1

[4] = system: woolly cupgrass (Eriochloa villosa)
Outline: as §1

[5] = system: yellow nutsedge (Cyperus esculentus)
Outline: as §1

kochia (Kochia scoparia) = system: kochia (Kochia scoparia)
Outline: as §1

corn (Zea mays) = system: corn (Zea mays)
Outline: as §1

[6] = system: downy bromegrass (Bromus tectorum)
Outline: as §1

[7] = system: lambsquarters (Chenopodium album)
Outline: as §1

[8] = system: Surinam grass (Brachiaria decumbens)
Outline: as §1

[9] = system: johnsongrass (Sorghum halepense)
Outline: as §1

[10] = system: blackgrass (Alopecurus myosuroides)
Outline: as §1

[11] = system: giant foxtail (Setaria faberii)
Outline: as §1

[12] = system: Italian ryegrass (Lolium multiflorum)
Outline: as §1

[13] = system: velvetleaf (Abutilon theophrasti)
Outline: as §1

[14] = system: bermudagrass (Cynodon dactylon)
Outline: as §1

[15] = system: goosegrass (Eleusine indica)
Outline: as §1

[16] = 31 g ai/ha, postemergence, scale 0 to 100, 0 is no effect, 100 is complete control
[17] = 250 g ai/ha, Preemergence, 0 to 100 scale
[18] = Postemergence, 62 g ai/ha, scale 0 (no effect) to 100 (complete control), 13 to 15 days
[19] = Postemergence, 125 g ai/ha, visual rating after 13 to 15 days, scale 0 (no effect) to 100 (complete control)
[20] = Postemergence, 250 g ai/ha, scale 0 to 100 (0 no effect, 100 complete control)
[21] = Preemergence, 31 g ai/ha, scale 0 to 100 (0 no effect, 100 complete control)
[22] = Preemergence, 62 g ai/ha, scale 0 to 100, 0 no effect, 100 complete control
[23] = Preemergence, 125 g ai/ha, scale 0 to 100, 0 no effect, 100 complete control

Structure (SMILES): Cc1ccc(Cl)cc1-n1c(-c2ccccc2)ncc(C(=O)C2=C(O)CCCC2=O)c1=O [Compound 52]
- Plant response rating, Ragweed [1, 16]: 75
- Plant response rating, Ragweed [1, 17]: 95
- Plant response rating, Ragweed [1, 18]: 80
- Plant response rating, Ragweed [1, 19]: 80
- Plant response rating, Ragweed [1, 20]: 85
- Plant response rating, Ragweed [1, 21]: 80
- Plant response rating, Ragweed [1, 22]: 80
- Plant response rating, Ragweed [1, 23]: 85
- Plant response rating, Crabgrass, Large [2, 16]: 85
- Plant response rating, Crabgrass, Large [2, 17]: 100
- Plant response rating, Crabgrass, Large [2, 18]: 90
- Plant response rating, Crabgrass, Large [2, 19]: 90
- Plant response rating, Crabgrass, Large [2, 20]: 98
- Plant response rating, Crabgrass, Large [2, 21]: 60
- Plant response rating, Crabgrass, Large [2, 22]: 98
- Plant response rating, Crabgrass, Large [2, 23]: 100
- Plant response rating, Foxtail, Green [3, 16]: 95
- Plant response rating, Foxtail, Green [3, 17]: 100
- Plant response rating, Foxtail, Green [3, 18]: 98
- Plant response rating, Foxtail, Green [3, 19]: 98
- Plant response rating, Foxtail, Green [3, 20]: 100
- Plant response rating, Foxtail, Green [3, 21]: 0
- Plant response rating, Foxtail, Green [3, 22]: 30
- Plant response rating, Foxtail, Green [3, 23]: 45
- Plant response rating, Cupgrass, Woolly [4, 16]: 70
- Plant response rating, Cupgrass, Woolly [4, 17]: 80
- Plant response rating, Cupgrass, Woolly [4, 18]: 75
- Plant response rating, Cupgrass, Woolly [4, 19]: 85
- Plant response rating, Cupgrass, Woolly [4, 20]: 95
- Plant response rating, Cupgrass, Woolly [4, 21]: 0
- Plant response rating, Cupgrass, Woolly [4, 22]: 10
- Plant response rating, Cupgrass, Woolly [4, 23]: 65
- Plant response rating, Nutsedge, Yellow [5, 16]: 20
- Plant response rating, Nutsedge, Yellow [5, 17]: 90
- Plant response rating, Nutsedge, Yellow [5, 18]: 25
- Plant response rating, Nutsedge, Yellow [5, 19]: 45
- Plant response rating, Nutsedge, Yellow [5, 20]: 65
- Plant response rating, Nutsedge, Yellow [5, 21]: 0
- Plant response rating, Nutsedge, Yellow [5, 22]: 25
- Plant response rating, Nutsedge, Yellow [5, 23]: 80
- Plant response rating, Kochia (kochia (Kochia scoparia); [16]): 20
- Plant response rating, Kochia (kochia (Kochia scoparia); [18]): 25
- Plant response rating, Kochia (kochia (Kochia scoparia); [19]): 55
- Plant response rating, Kochia (kochia (Kochia scoparia); [20]): 65
- Plant response rating, Corn (corn (Zea mays); [16]): 30
- Plant response rating, Corn (corn (Zea mays); [17]): 0
- Plant response rating, Corn (corn (Zea mays); [18]): 45
- Plant response rating, Corn (corn (Zea mays); [19]): 65
- Plant response rating, Corn (corn (Zea mays); [20]): 80
- Plant response rating, Corn (corn (Zea mays); [21]): 0
- Plant response rating, Corn (corn (Zea mays); [22]): 0
- Plant response rating, Corn (corn (Zea mays); [23]): 0
- Plant response rating, Bromegrass, Downy [6, 16]: 50
- Plant response rating, Bromegrass, Downy [6, 17]: 5
- Plant response rating, Bromegrass, Downy [6, 18]: 55
- Plant response rating, Bromegrass, Downy [6, 19]: 60
- Plant response rating, Bromegrass, Downy [6, 20]: 70
- Plant response rating, Bromegrass, Downy [6, 21]: 0
- Plant response rating, Bromegrass, Downy [6, 22]: 5
- Plant response rating, Bromegrass, Downy [6, 23]: 5
- Plant response rating, Lambsquarters [7, 16]: 85
- Plant response rating, Lambsquarters [7, 17]: 100
- Plant response rating, Lambsquarters [7, 18]: 85
- Plant response rating, Lambsquarters [7, 19]: 90
- Plant response rating, Lambsquarters [7, 20]: 95
- Plant response rating, Lambsquarters [7, 21]: 98
- Plant response rating, Lambsquarters [7, 22]: 100
- Plant response rating, Lambsquarters [7, 23]: 100
- Plant response rating, Surinam Grass [8, 16]: 75
- Plant response rating, Surinam Grass [8, 17]: 98
- Plant response rating, Surinam Grass [8, 18]: 85
- Plant response rating, Surinam Grass [8, 19]: 90
- Plant response rating, Surinam Grass [8, 20]: 98
- Plant response rating, Surinam Grass [8, 21]: 10
- Plant response rating, Surinam Grass [8, 22]: 25
- Plant response rating, Surinam Grass [8, 23]: 95
- Plant response rating, Johnsongrass [9, 16]: 75
- Plant response rating, Johnsongrass [9, 17]: 95
- Plant response rating, Johnsongrass [9, 18]: 85
- Plant response rating, Johnsongrass [9, 19]: 90
- Plant response rating, Johnsongrass [9, 20]: 95
- Plant response rating, Johnsongrass [9, 21]: 10
- Plant response rating, Johnsongrass [9, 22]: 75
- Plant response rating, Johnsongrass [9, 23]: 90
- Plant response rating, Blackgrass [10, 16]: 5
- Plant response rating, Blackgrass [10, 17]: 10
- Plant response rating, Blackgrass [10, 18]: 5
- Plant response rating, Blackgrass [10, 19]: 25
- Plant response rating, Blackgrass [10, 20]: 30
- Plant response rating, Blackgrass [10, 21]: 0
- Plant response rating, Blackgrass [10, 22]: 0
- Plant response rating, Blackgrass [10, 23]: 0
- Plant response rating, Foxtail, Giant [11, 16]: 80
- Plant response rating, Foxtail, Giant [11, 17]: 75
- Plant response rating, Foxtail, Giant [11, 18]: 80
- Plant response rating, Foxtail, Giant [11, 19]: 90
- Plant response rating, Foxtail, Giant [11, 20]: 90
- Plant response rating, Foxtail, Giant [11, 21]: 0
- Plant response rating, Foxtail, Giant [11, 22]: 15
- Plant response rating, Foxtail, Giant [11, 23]: 25
- Plant response rating, Ryegrass, Italian [12, 16]: 40
- Plant response rating, Ryegrass, Italian [12, 17]: 0
- Plant response rating, Ryegrass, Italian [12, 18]: 45
- Plant response rating, Ryegrass, Italian [12, 19]: 55
- Plant response rating, Ryegrass, Italian [12, 20]: 60
- Plant response rating, Ryegrass, Italian [12, 21]: 0
- Plant response rating, Ryegrass, Italian [12, 22]: 0
- Plant response rating, Ryegrass, Italian [12, 23]: 0
- Plant response rating, Velvetleaf [13, 16]: 95
- Plant response rating, Velvetleaf [13, 17]: 100
- Plant response rating, Velvetleaf [13, 18]: 98
- Plant response rating, Velvetleaf [13, 19]: 98
- Plant response rating, Velvetleaf [13, 20]: 100
- Plant response rating, Velvetleaf [13, 21]: 80
- Plant response rating, Velvetleaf [13, 22]: 98
- Plant response rating, Velvetleaf [13, 23]: 98
- Plant response rating, Bermudagrass [14, 16]: 85
- Plant response rating, Bermudagrass [14, 17]: 100
- Plant response rating, Bermudagrass [14, 18]: 95
- Plant response rating, Bermudagrass [14, 19]: 95
- Plant response rating, Bermudagrass [14, 20]: 100
- Plant response rating, Bermudagrass [14, 21]: 98
- Plant response rating, Bermudagrass [14, 22]: 98
- Plant response rating, Bermudagrass [14, 23]: 98
- Plant response rating, Goosegrass [15, 16]: 75
- Plant response rating, Goosegrass [15, 17]: 100
- Plant response rating, Goosegrass [15, 18]: 80
- Plant response rating, Goosegrass [15, 19]: 85
- Plant response rating, Goosegrass [15, 20]: 85
- Plant response rating, Goosegrass [15, 21]: 98
- Plant response rating, Goosegrass [15, 22]: 100
- Plant response rating, Goosegrass [15, 23]: 100
